The results in this text go back to US8846696B2, “Purine derivatives” (Cyclacel Limited, priority 2002, dated 2014).

One series deals with Hs27. Description: 72-h MTT assay Hs27. The series is classed as cell-based. The settings on record: Homo sapiens, read-out: 72-h MTT IC50, Hs27, normal foreskin fibroblast. The protocol:
(§1) In short: cells were seeded into 96-well plates according to doubling time and incubated overnight at 37° C. Test compounds were made up in DMSO and a ⅓ dilution series prepared in 100 μL cell media, added to cells (in triplicates) and incubated for 72 ho at 37° C. MTT was made up as a stock of 5 mg/mL in cell media and filter-sterilised. Media was removed from cells followed by a wash with 200 μL PBS. MTT solution was then added at 20 μL per well and incubated in the dark at 37° C. for 4 h. MTT solution was removed and cells again washed with 200 μL PBS. MTT dye was solubilised with 200 μL per well of DMSO with agitation.
(§2) Representative compounds of this invention were examined for their anti-proliferative effect against human tumour cell lines and immortalized non-transformed human cell lines (“normal” cell lines).
For orientation: Formazan colour is commonly taken as a measure of viable cells.

The next series concerns WI38. In words: 72-h MTT assay WI38. Particulars: Homo sapiens, WI-38, 72 h, read-out: 72-h MTT IC50; WI38, normal foetal lung fibroblast. The series is classed as cell-based. The protocol: as §1, §2
The next series deals with IMR90. Description: 72-h MTT assay IMR90. The series is classed as cell-based. Particulars: Homo sapiens, IMR-90, 72 h, read-out: 72-h MTT IC50; IMR90, normal embryo lung fibroblast. The protocol: as §1, §2
Another series has as its system HL-60. Description: 72-h MTT assay HL-60. The series is classed as cell-based. Particulars: Homo sapiens, read-out: 72-h MTT IC50, HL-60, acute promyelocytic leukaemia. The protocol: as §1, §2
The subject of a further series is CCRF-CEM. In words: 72-h MTT assay CCRF-CEM. Format: cell-based. The settings on record: Homo sapiens, read-out: 72-h MTT IC50, acute lymphoblastic leukaemia. The procedure: as §1, §2
The next series addresses CDK7/cyclin H (Homo sapiens (Human), UniProt P50613). In words: Kinase assay CDK7/cyclin H. The series is classed as biochemical. The settings on record: read-out: Kinase inhibition CDK7/cyclin H IC50.
The next series deals with normal cell lines. Description: 72-h MTT assay, mean of normal cell lines. Format: cell-based. Particulars: Homo sapiens, read-out: 72-h MTT IC50. The procedure: as §1, §2
Series [1] concerns Human tumour cell lines: A549, HT29, Saos-2. In words: 72-h MTT cytotoxicity assay, tumour cell lines A549, HT29, Saos-2. Format: cell-based. The procedure:
as §1

For a further series, the target named is CDK1/cyclin B (Homo sapiens (Human), UniProt P06493). In words: Kinase assay CDK1/cyclin B. Particulars: read-out: Kinase inhibition CDK1/cyclin B IC50. The series is classed as biochemical.
CDK1/cyclin B, sequence (P06493 whole entry): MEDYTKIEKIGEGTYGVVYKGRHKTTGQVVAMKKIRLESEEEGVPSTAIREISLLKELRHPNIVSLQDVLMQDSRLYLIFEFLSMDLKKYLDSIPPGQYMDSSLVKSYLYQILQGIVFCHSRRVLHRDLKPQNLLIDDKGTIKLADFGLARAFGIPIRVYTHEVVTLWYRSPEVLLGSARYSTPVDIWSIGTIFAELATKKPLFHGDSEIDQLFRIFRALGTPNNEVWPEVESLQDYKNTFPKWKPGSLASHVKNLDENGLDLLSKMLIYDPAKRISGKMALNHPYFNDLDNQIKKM
CDK1/cyclin B, sequence (P14635 whole entry partner): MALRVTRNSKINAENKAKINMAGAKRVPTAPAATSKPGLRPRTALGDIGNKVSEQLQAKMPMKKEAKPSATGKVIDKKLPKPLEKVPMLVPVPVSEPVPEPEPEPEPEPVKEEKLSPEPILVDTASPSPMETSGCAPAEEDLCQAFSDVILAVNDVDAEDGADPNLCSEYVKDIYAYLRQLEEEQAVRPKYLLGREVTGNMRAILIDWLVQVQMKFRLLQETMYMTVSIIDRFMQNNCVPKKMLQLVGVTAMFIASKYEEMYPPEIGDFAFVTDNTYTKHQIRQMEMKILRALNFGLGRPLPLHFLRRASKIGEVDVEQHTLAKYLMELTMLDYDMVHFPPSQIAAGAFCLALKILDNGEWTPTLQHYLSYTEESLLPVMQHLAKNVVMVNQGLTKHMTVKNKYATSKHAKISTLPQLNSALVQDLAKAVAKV
The test system of the next series is MCF7. Description: 72-h MTT assay MCF7. The series is classed as cell-based. Particulars: Homo sapiens, read-out: 72-h MTT IC50, MCF7, mammary adenocarcinoma. The protocol: as §1, §2
The subject of the next series is HeLa. Description: 72-h MTT assay HeLa. Format: cell-based. The settings on record: Homo sapiens, read-out: 72-h MTT IC50, cervical adenocarcinoma. The procedure: as §1, §2
Another series concerns the target CDK4/cyclin D1 (Homo sapiens (Human), UniProt P11802). The settings on record: read-out: Kinase inhibition CDK4/cyclin D1 IC50.
Another series deals with K-562. In words: 72-h MTT assay K-562. Particulars: Homo sapiens, K562, 72 h, read-out: 72-h MTT IC50. Format: cell-based. The protocol: as §1, §2
A further series has as its target CDK2/cyclin E (Homo sapiens (Human), UniProt P24941). In words: Kinase assay CDK2/cyclin E. Format: biochemical.
A further series relates to A549. In words: 72-h MTT assay A549. Format: cell-based. The settings on record: Homo sapiens, read-out: 72-h MTT IC50, A549, lung carcinoma. The protocol:
as §1, §2

The conditions of series [2]: 10 μM.
Method: Calibration curves were prepared at 0, 1, and 10 μM in microsomes pre-incubated for 30 min and these were also treated with methanol containing olomoucine. All samples were then centrifuged and the supernatants analysed by liquid chromatography-mass spectrometry.
The chromatography column was a Supelco LC-ABZ, 50×4.6 mm, 5 μm zwitterionic column (Supelco Inc., Supelco Park, Bellefonte, Pa., USA). Gradient eluants consisted of methanol (A) and 0.1% formic acid in water (B). […] The flow rate was 1 mL/min throughout. […] Eluant from the detector passed, without splitting, into a Thernoquest LCQ ion trap mass spectrometer fitted with an electrospray source operated in positive mode. Mass spectrometer conditions were sheath gas 80, auxiliary gas 20 (both arbitrary units), capillary voltage 4 to 4.5 kV and heated capillary temperature 250 to 280° C. The mass range was 50-750. Scan time was controlled by the ion trap which was set to a maximum ion injection time of 200 ms or the time required to inject 2×10^8 ions; for each scan the system automatically used whichever time was reached first.
The peak area ration (test compound/internal standard) of the test incubation was then compared with the peak area ratios obtained fro the calibration curve of the test compound. From these values the concentration of test compound remaining after 30 min microsomal protein incubation was determined.
A further series has as its system HT-29. Description: 72-h MTT assay HT-29. The series is classed as cell-based. Particulars: Homo sapiens, read-out: 72-h MTT IC50, HT-29, colorectal adenocarcinoma. The protocol: as §1, §2
Another series has as its system cancer cell lines. In words: 72-h MTT assay, mean of cancer cell lines. Format: cell-based. Particulars: Homo sapiens, read-out: 72-h MTT IC50. The procedure: as §1, §2
Series [3] deals with cyclic AMP-dependent kinase (PKA) catalytic subunit (Homo sapiens (Human), UniProt P17612). Description: Kinase assay PKA. Particulars: read-out: Kinase inhibition PKA IC50.
Method: (§3) Recombinant cyclin D1 was expressed in E. coli. […] Reactions were stopped on ice, followed by filtration through p81 filterplates or GF/C filterplates (for CDK4) (Whatman Polyfiltronics, Kent, UK), except for CDK7 where, after stopping reaction on ice, 10 μL of 10 mg/mL avidin was added to each well and further incubated for 10 min followed by filtration as per CDK2 assay. After washing 3 times with 75 mM aq orthophosphoric acid, plates were dried, scintillant added and incorporated radioactivity measured in a scintillation counter (TopCount, Packard Instruments, Pangbourne, Berks, UK). Compounds for kinase assay were made up as 10 mM stocks in DMSO and diluted into 10% DMSO in assay buffer.
Another series has as its target ERK-2 (Homo sapiens (Human), UniProt P28482). In words: Kinase assay ERK-2. Particulars: read-out: Kinase inhibition ERK2 IC50.
In a further series the test system is Saos-2. Description: 72-h MTT assay Saos-2. The series is classed as cell-based. Particulars: Homo sapiens, read-out: 72-h MTT IC50, Saos-2, osteosarcoma. The procedure: as §1, §2

Some results are limits rather than exact numbers.

ERK-2, sequence (P28482 whole entry, species assumed): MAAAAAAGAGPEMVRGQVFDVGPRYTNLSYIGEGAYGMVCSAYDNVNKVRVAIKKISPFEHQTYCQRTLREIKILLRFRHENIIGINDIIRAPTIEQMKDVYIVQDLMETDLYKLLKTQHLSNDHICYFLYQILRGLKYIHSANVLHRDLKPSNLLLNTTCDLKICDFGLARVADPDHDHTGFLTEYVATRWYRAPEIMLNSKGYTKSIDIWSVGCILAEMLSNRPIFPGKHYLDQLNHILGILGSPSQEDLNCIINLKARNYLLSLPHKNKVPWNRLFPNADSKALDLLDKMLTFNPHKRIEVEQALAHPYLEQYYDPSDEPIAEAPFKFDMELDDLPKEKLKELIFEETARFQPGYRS
CDK7/cyclin H, sequence (P50613 whole entry): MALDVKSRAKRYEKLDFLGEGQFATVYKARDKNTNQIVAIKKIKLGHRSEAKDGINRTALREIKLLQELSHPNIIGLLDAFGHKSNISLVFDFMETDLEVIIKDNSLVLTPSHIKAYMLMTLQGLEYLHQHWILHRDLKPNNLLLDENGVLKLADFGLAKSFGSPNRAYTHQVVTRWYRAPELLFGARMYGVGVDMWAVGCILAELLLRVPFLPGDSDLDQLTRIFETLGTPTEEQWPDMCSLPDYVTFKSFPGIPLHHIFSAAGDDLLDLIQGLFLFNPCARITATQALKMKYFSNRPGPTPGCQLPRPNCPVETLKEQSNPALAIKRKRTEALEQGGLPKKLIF
CDK7/cyclin H, sequence (P51946 whole entry partner): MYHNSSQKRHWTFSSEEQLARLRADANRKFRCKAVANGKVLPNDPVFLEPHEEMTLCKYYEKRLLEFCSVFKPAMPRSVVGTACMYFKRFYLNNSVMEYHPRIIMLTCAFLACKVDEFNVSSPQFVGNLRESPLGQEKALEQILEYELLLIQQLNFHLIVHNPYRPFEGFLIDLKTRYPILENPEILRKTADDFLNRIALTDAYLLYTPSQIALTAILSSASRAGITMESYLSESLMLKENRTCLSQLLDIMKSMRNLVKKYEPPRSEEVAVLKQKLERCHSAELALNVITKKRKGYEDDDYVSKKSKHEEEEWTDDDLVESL
CDK4/cyclin D1, sequence (P11802 whole entry): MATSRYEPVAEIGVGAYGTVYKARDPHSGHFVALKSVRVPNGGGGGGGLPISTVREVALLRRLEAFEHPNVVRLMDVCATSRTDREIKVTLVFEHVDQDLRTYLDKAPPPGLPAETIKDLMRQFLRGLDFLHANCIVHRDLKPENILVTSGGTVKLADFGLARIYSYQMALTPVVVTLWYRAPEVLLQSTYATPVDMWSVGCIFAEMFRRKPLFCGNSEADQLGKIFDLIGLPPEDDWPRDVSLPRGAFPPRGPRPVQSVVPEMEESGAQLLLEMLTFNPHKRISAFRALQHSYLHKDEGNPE
CDK4/cyclin D1, sequence (P24385 whole entry partner): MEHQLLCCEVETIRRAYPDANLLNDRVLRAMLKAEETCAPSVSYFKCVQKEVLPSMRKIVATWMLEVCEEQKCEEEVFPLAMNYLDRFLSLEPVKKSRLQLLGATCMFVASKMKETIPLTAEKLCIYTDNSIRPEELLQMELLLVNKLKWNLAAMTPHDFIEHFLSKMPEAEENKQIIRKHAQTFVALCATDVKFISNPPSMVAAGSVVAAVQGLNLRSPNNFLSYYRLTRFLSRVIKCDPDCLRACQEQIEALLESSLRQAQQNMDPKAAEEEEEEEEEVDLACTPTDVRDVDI
Method for CDK1/cyclin B: as §3
Method for CDK2/cyclin E: as §3
Method for CDK4/cyclin D1: as §3
Method for CDK7/cyclin H: Reactions were stopped on ice, followed by filtration through p81 filterplates or GF/C filterplates (for CDK4) (Whatman Polyfiltronics, Kent, UK), except for CDK7 where, after stopping reaction on ice, 10 μL of 10 mg/mL avidin was added to each well and further incubated for 10 min followed by filtration as per CDK2 assay. After washing 3 times with 75 mM aq orthophosphoric acid, plates were dried, scintillant added and incorporated radioactivity measured in a scintillation counter (TopCount, Packard Instruments, Pangbourne, Berks, UK). Compounds for kinase assay were made up as 10 mM stocks in DMSO and diluted into 10% DMSO in assay buffer.
Method for ERK-2: as §3

Turning to `CC[C@H](Nc1nc(NCc2cccnc2)c2ncn(C(C)C)c2n1)C(C)(C)O` [(3S)-3-{9-Isopropyl-6-[(pyridin-3-ylmethyl)-amino]-9H-purin-2-ylamino}-2-methyl-pentan-2-ol], the IC50 in the series on Hs27 was 11.3 ± 0.7 µM; with WI38 it was > 20 µM; with IMR90, > 20 µM; with HL-60, 3 ± 0.2 µM; in the series with CCRF-CEM, 3.7 ± 0.3 µM; at CDK7/cyclin H, 2.5 µM. Also, the IC50 in the series on normal cell lines is > 10 µM; in [1] (72 h, read-out: In vitro anti-proliferative activity (72-h MTT IC50), Human tumour cell lines: A549, HT29, Saos-2) it was 4 µM; on CDK1/cyclin B it was 4.4 µM; with MCF7 it was 2.3 ± 0.3 µM; with HeLa, 4.7 ± 0.5 µM; on CDK4/cyclin D1 it was 12 µM. Further, the IC50 was 8.4 ± 1.2 µM in the series on K-562; 0.07 µM on CDK2/cyclin E (read-out: Kinase inhibition CDK2/cyclin E IC50); 3.6 ± 0.2 µM in the series with A549; 2.3 ± 0.9 µM with HT-29; 4 ± 2 µM with cancer cell lines; > 200 µM in series [3]. Moreover, the IC50 stood at 35 µM at ERK-2 and 3.9 ± 0.8 µM with Saos-2. The “C: IC50 cytotox. roscovitine/IC50 cytotox. compound” value in [1] (ratio to roscovitine) turned out to be 2.9. In addition, the “A × B” value at CDK2/cyclin E (comparative in vitro efficacy) amounted to 3.2. In addition, the “B: IC50 CDK2 roscovitine/IC50 CDK2 compound” value at CDK2/cyclin E (ratio to roscovitine) was found to be 1.4. The “% Drug after 30 min. microsomal incubation” value in series [2] is 78%.
